Where a SMILES comes first, the peptide text is derived from it. [ ]: non-standard residue; d: D form. The star is where a group is joined. dOrn = NCCC[C@@H](N)C(=O)O; Octanoyl = CCCCCCCC(=O)*; Orn = NCCC[C@H](N)C(=O)O
Key:
[1] = system: Equine erythrocytes; assay type: cell-based, horse; settings: red cells of equine, 100 μg mL^–1
Method: Having assessed the antimicrobial activity of peptides 1–8 we next proceeded to assess their haemolytic activities (Table 2). Haemolytic activity was tested at 100 μg mL^–1, as the concentration required for haemolysis should be higher than antimicrobial MICs. Equine erythrocytes were exposed to peptides 1–8 and incubated for 30 min at 37 °C (Table 2). […] The low haemolytic activity observed for Oct-TriA2 (2,8-D-Lys, 7-Lys) (8) is consistent with its poor antimicrobial activity. […]
VI. Haemolytic activity assays
A 96-well plate was first prepared to contain phosphate-buffered saline (PBS) solutions (100 μL) of tridecaptin analogues 1 – 8 (200 μg/mL) (experiments run in triplicate). 0.1 % Triton X-100 (100 μL) was used as a positive control, while PBS (100 μL) was used as a blank. After the plate had been prepared, defibrinated horse blood (0.5 mL, VWR International) was diluted with phosphate-buffered saline (9.5 mL) and gently shaken. The resulting mixture was centrifuged (5600 rpm, 5 min) using a Thermo Scientific Heraeus Labofuge 200 centrifuge and the supernatant carefully removed. This process was repeated three more times to remove any free hemoglobin. The resulting erythrocyte pellet was gently resuspended in 9.5 mL of PBS. Aliquots of the resulting mixture (100 μL) were added to the appropriate wells on the 96-well plate using a multichannel pipette and the plate incubated at 37 °C for 30 min. The samples were gently mixed by pipetting, and 20 μL of each was added to 200 μL of PBS. Once again, the samples were gently mixed. The diluted samples were then centrifuged (7000 rpm, 5 min) using a SciSpin MINI Microfuge. Supernatant (150 μL) from each sample was added to a new 96-well plate. The absorbance of each sample was individually measured at 415 nm using a Denovix DS-11 FX+ Spectrophotometer. Percent hemolysis of the peptides was calculated relative to Triton X- 100, while the PBS negative control was used as a blank.

[2] = system: K. pneumoniae IMP 170; assay type: cell-based, Klebsiella pneumoniae; settings: IMP 170, 18 h
Method: (§1) IV. Antimicrobial testing
(§2) All minimum inhibitory concentrations (MICs) were determined according to Clinical and Standards Laboratory Institute (CLSI) guidelines. Briefly, peptides were dissolved in Muller-Hinton Broth (MHB) and serial dilutions made across a 96 well plate. Each well was inoculated with a suspension of the required bacterial strain to reach a final inoculum of 5 x 10^5 colony forming units per mL. The MIC was taken as the lowest concentration with no visible growth after 18 hours.

[3] = system: K. pneumoniae IMP 485; assay type: cell-based, Klebsiella pneumoniae; settings: IMP 485, 18 h
Method: as §1, §2

[4] = system: K. pneumoniae IMP 177; assay type: cell-based, Klebsiella pneumoniae; settings: IMP 177, 18 h
Method: as §1, §2

[5] = system: K. pneumoniae; assay type: cell-based, Klebsiella pneumoniae; settings: 18 h
Method: as §1, §2

[6] = system: K. pneumoniae IMP 204; assay type: cell-based, Klebsiella pneumoniae; settings: IMP 204, 18 h
Method: as §1, §2

[7] = system: K. pneumoniae IMP 216; assay type: cell-based, Klebsiella pneumoniae; settings: IMP 216, 18 h
Method: as §1, §2

[8] = system: K. pneumoniae and E. cloacae strains; assay type: cell-based, Klebsiella pneumoniae, Enterobacter cloacae; settings: 18 h
Method: The first amino acid substitution we explored was replacement of D-allo-Ile12 with D-Val, which occurs in natural TriA2 variants. Fmoc-D-Val is ∼30 times less expensive than Fmoc-D-allo-Ile (according to Fluorochem pricing). […] The minimum inhibitory concentrations (MICs) of Oct-TriA1 against K. pneumoniae and E. cloacae strains were typically 6.25 μg mL^–1 but […] against carbapenemase-producing A. baumannii strains (25 μg mL^–1).
(§3) MilliQ water and solvent B = 0.1 % TFA in ACN. A gradient method was employed, starting from 20 % B and 80 % A for 2 min, ramping up to 95 % B over 18 min, ramping down to 20 % B over 0.1 min before staying at 20 % B for 3.9 min. High resolution mass spectrometry (HRMS) spectra of all peptides were recorded by Analytical Services and Environmental Projects (ASEP) at Queen’s University Belfast on a Waters LCT Premier ToF mass spectrometer using the electrospray ionisation (ESI) technique.
as §1
as §2, with “The MIC was taken as the lowest concentration with no visible growth after 18 hours.” left out

[9] = system: E. cloacae; assay type: cell-based, Enterobacter cloacae; settings: 18 h
Method: as §1, §2

[10] = system: A. baumannii; assay type: cell-based, Acinetobacter baumannii; settings: 18 h
Method: as §1, §2
(§4) V. Additional information on multidrug resistant strains
(§5) Organism Resistant Susceptible
Acinetobacter baumannii Cefotaxime Imipenem
Isolated from sewage contaminated Tetracycline Colistin water (Tripoli, Lebanon). Ofloxacin Tobramycin
(§6) Acinetobacter baumannii ACM 11 Ceftazimide
(§7) Acinetobacter baumannii ACM 29 Ceftazimide
(§8) Isolated from peritoneum of 3-year- Imipenem

[11] = system: A. baumannii ACM 29; assay type: cell-based, Acinetobacter baumannii; settings: ACM 29, 18 h
Method: as §1, §2
V. Additional information on multidrug resistant strains […]
Organism Resistant Susceptible […]
as §7, §8

[12] = system: A. baumannii ACM 11; assay type: cell-based, Acinetobacter baumannii; settings: ACM 11, 18 h
Method: as §1, §2, §4, §5, §6

[13] = system: P. pseudoalcaligenes; assay type: cell-based, Pseudomonas pseudoalcaligenes; settings: 18 h
Method: as §1, §2

[14] = system: A. baumannii strains; assay: MIC; assay type: cell-based, Acinetobacter baumannii; settings: against the A. baumannii strains
Description: (§9) We next proceeded to replace the D-Dab and L-Dab residues, found at positions 2 and 8, and 7 respectively. […] It was previously shown that D-Dab8 is essential for antimicrobial activity,[18] and an experimentally derived model of Oct-TriA1 bound to its cellular receptor, the peptidoglycan intermediate lipid II, supports this observation.[12] Therefore we first prepared peptides in which only the amino acids at positions 2 and 7 were substituted with Lys or Orn (D/L configuration retained). […] Finally, the Lys/Orn substitutions at the 2, 7 and 8 positions were also incorporated into TriA2 analogues, yielding Oct-TriA2 (2,8-D-Orn, 7-Orn) (7) and Oct-TriA2 (2,8-D-Lys, 7-Lys) (8).
as §3, §1
(§10) All minimum inhibitory concentrations (MICs) were determined according to Clinical and Standards Laboratory Institute (CLSI) guidelines. […]

[15] = system: K. pneumoniae strains; assay: MIC; assay type: cell-based, Klebsiella pneumoniae; settings: against the K. pneumoniae strains
Description: as §9, §3, §1, §10

| Peptide MIC [2] | Peptide MIC [3] | Peptide MIC [4] | Peptide MIC [5] | Peptide MIC [6] | Peptide MIC [7] | minimum inhibitory concentrations (MICs), typical value [8] | Peptide MIC [9] | Peptide MIC [10] | Peptide MIC [11] | Peptide MIC [12] | Peptide MIC [13] | Structure (SMILES) | % haemolysis [1] | antimicrobial activity relative to Oct-TriA1 [14] | antimicrobial activity relative to Oct-TriA1 [15] |
| --- | --- | --- | --- | --- | --- | --- | --- | --- | --- | --- | --- | --- | --- | --- | --- |
| 6.25 μg mL^–1 | 6.25 μg mL^–1 | 6.25 μg mL^–1 | 6.25 μg mL^–1 | 12.5 μg mL^–1 | 6.25 μg mL^–1 | ~6.25 μg mL^–1 | 3.13 μg mL^–1 | 12.5 μg mL^–1 | 25 μg mL^–1 | 25 μg mL^–1 | 50 μg mL^–1 | CCCCCCCC(=O)N[C@@H](C(=O)N[C@H](CCN)C(=O)NCC(=O)N[C@H](CO)C(=O)N[C@H](Cc1c[nH]c2ccccc12)C(=O)N[C@@H](CO)C(=O)N[C@@H](CCN)C(=O)N[C@H](CCN)C(=O)N[C@@H](Cc1ccccc1)C(=O)N[C@@H](CCC(=O)O)C(=O)N[C@H](C(=O)N[C@@H](C(=O)N[C@@H](C)C(=O)O)[C@@H](C)CC)C(C)C)C(C)C [Peptide 1, Oct-TriA1, reference compound] | 89.6% |  |  |
| 25 μg mL^–1 | 12.5 μg mL^–1 | 12.5 μg mL^–1 | 50 μg mL^–1 | 12.5 μg mL^–1 | 12.5 μg mL^–1 |  | 12.5 μg mL^–1 | 25 μg mL^–1 | 50 μg mL^–1 | 25 μg mL^–1 | 6.25 μg mL^–1 | CCCCCCCC(=O)N[C@@H](C(=O)N[C@H](CCCN)C(=O)NCC(=O)N[C@H](CO)C(=O)N[C@H](Cc1c[nH]c2ccccc12)C(=O)N[C@@H](CO)C(=O)N[C@@H](CCCN)C(=O)N[C@H](CCCN)C(=O)N[C@@H](Cc1ccccc1)C(=O)N[C@@H](CCC(=O)O)C(=O)N[C@H](C(=O)N[C@@H](C(=O)N[C@@H](C)C(=O)O)C(C)C)C(C)C)C(C)C [Peptide 7, Oct-TriA2 (2,8-D-Orn, 7-Orn)] (Octanoyl-[dV][dOrn]G[dS][dW]S[Orn][dOrn]FEV[dV]A-OH) | 39.8% | comparable activity | two- to four-fold less active |
